The results in this text go back to ChEMBL document CHEMBL1134425, “alpha-Amino-beta-sulphone hydroxamates as potent MMP-13 inhibitors that spare MMP-1” (Bioorg Med Chem Lett, 2001).

The target in data set [1] is Matrix metalloproteinase (1 and 13) (Homo sapiens) (UniProt P45452+P03956). As to the kind of experiment: Selectivity for Matrix metalloprotease-1 over Matrix metalloprotease-13. It is filed as protein assay.
In a further data set the target is Collagenase 3 (Homo sapiens, UniProt P45452). As to the kind of experiment: Inhibition of Matrix metalloprotease-13.
Another data set addresses T1, Interstitial collagenase (Homo sapiens, UniProt P03956).
T1 sequence (P03956 whole entry): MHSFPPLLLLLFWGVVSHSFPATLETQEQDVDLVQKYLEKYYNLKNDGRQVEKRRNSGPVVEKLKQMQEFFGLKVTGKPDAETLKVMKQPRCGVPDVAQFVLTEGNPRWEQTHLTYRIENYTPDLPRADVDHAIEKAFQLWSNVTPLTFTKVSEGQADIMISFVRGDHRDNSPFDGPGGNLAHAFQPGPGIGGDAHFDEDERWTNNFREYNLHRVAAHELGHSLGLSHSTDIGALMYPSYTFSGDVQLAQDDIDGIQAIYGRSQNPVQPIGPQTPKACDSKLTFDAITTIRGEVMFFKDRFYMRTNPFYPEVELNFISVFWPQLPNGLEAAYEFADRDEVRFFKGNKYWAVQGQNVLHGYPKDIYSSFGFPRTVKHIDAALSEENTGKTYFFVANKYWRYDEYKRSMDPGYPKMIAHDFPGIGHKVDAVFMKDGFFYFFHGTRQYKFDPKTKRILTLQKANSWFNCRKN
As to the kind of experiment: Inhibition of Matrix metalloprotease-1.

Data set [2] can be described thus: Maximum plasma concentration dosed orally in rats. It is filed as ADME, organism-based. Also noted: route oral. Particulars: rat, po.
A short description of data set [3]: Maximum plasma concentration dosed orally in rats after 6 hours. It is filed as ADME, organism-based. Also noted: route oral. The conditions noted are these: rat, po.

`COc1ccc(S(=O)(=O)CC(NC(=O)OC(C)(C)C)C(=O)NO)cc1` (centres undefined) showed a Selectivity in data set [1] of 100. In addition, the IC50 (commonly the point on the concentration scale where inhibition reaches its midpoint) against Collagenase 3 came out at 0.015 µM; against Interstitial collagenase it was 1.5 µM.
`CN(C(=O)Cc1ccncc1)[C@H](CS(=O)(=O)c1ccc(Oc2ccccc2)cc1)C(=O)NO` had a Selectivity in data set [1] of 130. Also, in data set [2], the Cmax – broadly, the highest concentration seen after dosing – was determined as 0.71 µg/mL. Half-maximal inhibition against Collagenase 3 (IC50) required 0.002 µM.
On to `COc1ccc(S(=O)(=O)CC(NC(=O)CNC(=O)OCc2ccccc2)C(=O)NO)cc1` (centres undefined), for which the Selectivity in data set [1] is over 40.
Still for that read-out and setting: then `CN(Cc1ccccc1)[C@H](CS(=O)(=O)c1ccc(Oc2ccccc2)cc1)C(=O)NO`, with 2400; and `Cc1ccc(S(=O)(=O)NC(CS(=O)(=O)c2ccc(Oc3ccccc3)cc2)C(=O)NO)cc1` (centres undefined), with 670; and `O=C(CNC(=O)OCc1ccccc1)NC(CS(=O)(=O)c1ccc(Sc2ccccc2)cc1)C(=O)NO` (centres undefined), with over 12000.
In data set [1], `Cc1ccc(S(=O)(=O)NC(CS(=O)(=O)c2ccc(Sc3ccccc3)cc2)C(=O)NO)cc1` (centres undefined) yielded a Selectivity of 1500.
Compound `COc1cccc(OC)c1C(=O)N[C@H](CS(=O)(=O)c1ccc(Oc2ccccc2)cc1)C(=O)NO` registered a Selectivity in data set [1] of 870. The Cmax in data set [2] was under 0.2 µg/mL. Besides, the IC50 worked out at 0.0004 µM against Collagenase 3 and 0.35 µM at Interstitial collagenase.
In data set [1], `CC(=O)N(C)[C@H](CS(=O)(=O)c1ccc(Oc2ccccc2)cc1)C(=O)NO` showed a Selectivity of 450. For the same compound, the Cmax in data set [2] stood at 2.45 µg/mL; in data set [3], 0.06 µg/mL. Also, the IC50 against Collagenase 3 was determined as 0.0002 µM; against Interstitial collagenase it was 0.09 µM.
Regarding `NC(CS(=O)(=O)c1ccc(Sc2ccccc2)cc1)C(=O)NO` (centres undefined), the Selectivity in data set [1] was 420.
In data set [1], `O=C(N[C@H](CS(=O)(=O)c1ccc(Sc2ccccc2)cc1)C(=O)NO)OCc1ccccc1` had a Selectivity of 20000. The IC50 against Collagenase 3 turned out to be 0.0004 µM; against Interstitial collagenase it was 8 µM.
`O=C(N[C@H](CS(=O)(=O)c1ccc(Oc2ccccc2)cc1)C(=O)NO)c1ccncc1` displayed a Selectivity in data set [1] of 1100. In data set [2], this compound came in with a Cmax of under 0.2 µg/mL. For the same compound, the IC50 amounted to 0.0008 µM at Collagenase 3 and 0.9 µM against Interstitial collagenase.
The matching figures for `CC(C)(C)OC(=O)N[C@H](CS(=O)(=O)c1ccc(Oc2ccccc2)cc1)C(=O)NO`: 1600, under 0.2 µg/mL, 0.0003 µM and 0.5 µM.
Consider `O=C(NC(CS(=O)(=O)c1ccc(Sc2ccccc2)cc1)C(=O)NO)OCc1ccccc1` (centres undefined), for which, in data set [1], the Selectivity is over 2700.
For `CC(=O)NC(CS(=O)(=O)c1ccc(Oc2ccccc2)cc1)C(=O)NO` (centres undefined), the Selectivity in data set [1] came out at 700. Also, the figures for the IC50 against Collagenase 3 and against Interstitial collagenase were 0.0011 µM and 0.77 µM, respectively.
As to `CC(C)(C)OC(=O)N[C@H](CS(=O)(=O)c1ccc(Sc2ccccc2)cc1)C(=O)NO`, the Selectivity in data set [1] is over 2500. Further, the results for the IC50 against Collagenase 3 and against Interstitial collagenase were 0.004 µM and over 10 µM, respectively.
In data set [1], `COc1ccc(S(=O)(=O)CC(N)C(=O)NO)cc1` (centres undefined) showed a Selectivity of 17.
`CC(=O)NC(CS(=O)(=O)c1ccc(Sc2ccccc2)cc1)C(=O)NO` (centres undefined) showed a Selectivity in data set [1] of over 1700.
Compound `CC(=O)N[C@H](CS(=O)(=O)c1ccc(Sc2ccccc2)cc1)C(=O)NO` returned a Selectivity in data set [1] of 3400. Also, the IC50 is 0.0029 µM at Collagenase 3 and 10 µM at Interstitial collagenase.
The matching figures for `O=C(NC(CS(=O)(=O)c1ccc(Oc2ccccc2)cc1)C(=O)NO)OCc1ccccc1` (centres undefined): 1300, 0.0011 µM and 1.4 µM.
For the compound `CN[C@H](CS(=O)(=O)c1ccc(Oc2ccccc2)cc1)C(=O)NO`, the Selectivity in data set [1] amounted to 1100. For the same compound, the Cmax in data set [2] turned out to be 6.66 µg/mL; in data set [3], 0.049 µg/mL. In addition, the IC50 against Collagenase 3 turned out to be 0.0004 µM; against Interstitial collagenase, 0.44 µM.
`COc1ccc(S(=O)(=O)CC(NC(C)=O)C(=O)NO)cc1` (centres undefined): the Selectivity in data set [1] was determined as 20.
Still for that read-out and setting: then `CN(C(=O)OC(C)(C)C)[C@H](CS(=O)(=O)c1ccc(Oc2ccccc2)cc1)C(=O)NO`, with 5300.
